Data on 16 compounds can be found in ChEMBL document CHEMBL2113921, “Open Source Malaria Deposition 1. http://malaria.ourexperiment.org” (2013).

pIC50: −log10 of the molar value. ≈ marks a conversion by molar mass, not a printed value.

Data set [1] in a line: OSM: Microsomal stability: 0.5 uM substrate, 0.4 mg/mL protein, NADPH cofactor). Analysed by LC/MS. In vitro CLint (uL/min/mg protein). It is filed as ADME, Microsome. The conditions noted are these: human, microsomes.
A short description of data set [2]: OSM: Kinetic solubility pH 6.5 isotonic phosphate buffer. It is filed as ADME.
Data set [3] concerns Plasmodium falciparum. The experiment in a line: OSM: Inhibition of Plasmodium falciparum 3D7 growth using a SYBR green I fluorescence based assay. GSK Tres Cantos. The data set is classed as functional, organism-based.
Data set [4] can be described thus: OSM: Microsomal stability: 0.5 uM substrate, 0.4 mg/mL protein, NADPH cofactor. Analysed by LC/MS. Degradation rate classification. It is filed as ADME, Microsome. The conditions noted are these: human, microsomes.
In data set [5] the test system is Plasmodium falciparum. The experiment in a line: OSM: Late stage gametocytes. IC50 values determined from 21 point dose response curves. Avery Group Griffith. It is filed as functional, organism-based. The note with it: Pfs16-GFP transgenic NF54.
Data set [6] can be described thus: OSM: Microsomal stability: 0.5 uM substrate, 0.4 mg/mL protein, NADPH cofactor. Analysed by LC/MS. Degradation half life (min). The data set is classed as ADME, Microsome. The note with it: human, microsomes.
For data set [7], the system named is Plasmodium falciparum. The experiment in a line: OSM: Inhibition of Plasmodium falciparum 3D7 growth using a SYBR green I fluorescence based assay. Dose response curves were generated comprising of 8 points using a 2-fold serial dilution for the maximum final concentration of 1000 nM. Ralph Group, Bio21. The data set is classed as functional, organism-based.

The subject of data set [8] is Plasmodium falciparum. The experiment in a line: OSM: Inhibition of Plasmodium falciparum 3D7 growth. IC50 values determined from 21 point dose response curves. Avery Group Griffith. The data set is classed as functional, organism-based.
A short description of data set [9]: OSM: HEK293 cytotoxicity assay. Duplicate point single experiment at 120 uM. Avery Group, Griffith. It is filed as toxicity, cell-based. The conditions noted are these: human, HEK293 cells; read-out: Inhibition.
Data set [10] relates to Plasmodium falciparum K1. Kind of data set: OSM: Inhibition of Plasmodium falciparum K1 growth. IC50 values determined from 21 point dose response curves. Avery Group Griffith. The data set is classed as functional, organism-based.
Data set [11] relates to Plasmodium falciparum. Kind of data set: OSM: Percent inhibition of Plasmodium falciparum 3D7 growth at 40 uM. Avery Group Griffith. It is filed as functional.
In data set [12] the test system is Plasmodium falciparum K1. The experiment in a line: OSM: CSIR assay K1: Compounds were tested for inhibition of Plasmodium falciparum growth using a SYBR green I fluorescence based assay. The data set is classed as functional, organism-based.
Data set [13] has as its system Plasmodium falciparum. Kind of data set: OSM: Percent inhibition of Plasmodium falciparum 3D7 growth at 80 uM. Avery Group Griffith. It is filed as functional.

In the case of `Cc1cc(/C=C2\S/C(=N\c3ccccc3)NC2=O)c(C)n1-c1ccc(C(F)(F)F)cc1`, the microsomal CLint – broadly, the capacity of the preparation to metabolise the compound, expressed as a volume cleared per time – at 0.5 µM in data set [1] was less than 7 µL/min/mg. The solubility (kinetic) (in general, solubility judged after dilution from a stock solution rather than from solid) in data set [2] turned out to be 3 µg/mL (≈ 6.8 µM). Moreover, the pIC50 (as a rule, the IC50 on a negative log10 scale, so that one unit is a factor of ten) with Plasmodium falciparum [3] was 7.54; in the data set on Plasmodium falciparum [5] it was 8.40; in the data set with Plasmodium falciparum [7] it was 6.69; in the data set with Plasmodium falciparum [8], 8.70. Also, the Relative metabolic rate entry in data set [4] is “Low”. In addition, in data set [6], the half-life (in general, the time needed for the level to fall by half in the phase considered) at 0.5 µM is more than 250 min.

In turn, `COc1cc(C)c2c(Oc3cccc(C(F)(F)F)c3)c(OC)cc(NC(C)CCCN)c2n1` (stereo not drawn) [TAFENOQUINE] showed a pIC50 in the data set with Plasmodium falciparum [5] of 5.55.

Regarding `CC(=O)N(C1=NC(=O)/C(=C/c2cc(C)n(-c3ccc(F)cc3)c2C)S1)c1ccccc1`, the cytotoxicity at 120 µM in [9] is 75%. Further, the pIC50 was 7.33 in the data set on Plasmodium falciparum [3], 7.18 with Plasmodium falciparum K1 [10], 7.55 in the data set on Plasmodium falciparum [5] and 7.33 in the data set with Plasmodium falciparum [8]. Also, the Relative metabolic rate result in data set [4] is “Rapid non-NADPH acetamide hydrolysis to OSM-S-10”.

As for `Cc1cccc(-n2c(C)cc(C(=O)N(C)CC(=O)Nc3cc(C)on3)c2C)c1`, in the data set with Plasmodium falciparum [11], the inhibition (usually the change of the read-out against control, counted positive when it falls) at 40 µM came out at 85%.

With `Cc1cc(/C=C2\S/C(=N\c3ccccc3)NC2=O)c(C)n1-c1cc(C(F)(F)F)cc(C(F)(F)F)c1`, the microsomal CLint at 0.5 µM in data set [1] was less than 7 µL/min/mg. The same compound came in with a solubility (kinetic) in [2] of 4 µg/mL (≈ 7.85 µM). Also, the pIC50 is 8.15 in the data set on Plasmodium falciparum [3], 8.52 in the data set on Plasmodium falciparum [5], 8.30 in the data set with Plasmodium falciparum [7] and 9.00 in the data set on Plasmodium falciparum [8]. The Relative metabolic rate entry in data set [4] was “Low”. Further, the half-life at 0.5 µM in data set [6] was more than 250 min.

With `Cc1cc(CN2CCCC2)c(C)n1-c1ccc(F)cc1`, testing at 40 µM with Plasmodium falciparum [11] gave an inhibition of 96%.

As to `Cc1cc(C(=O)CCC(N)=O)c(C)n1-c1ccc(F)cc1`, the inhibition at 40 µM in the data set with Plasmodium falciparum [11] came out at 61%.

As for `CCN(CC)CCCC(C)Nc1ccnc2cc(Cl)ccc12` (stereo not drawn) [CHLOROQUINE], the pIC50 in the data set with Plasmodium falciparum K1 [12] was 6.63; in the data set on Plasmodium falciparum K1 [10] it was 6.58. Further, the cytotoxicity at 120 µM in data set [9] is 100%.

In the data set with Plasmodium falciparum [11], `COc1ccc(-c2cc3ncnc(Oc4ccc(S(=O)(=O)N5CCOCC5)cc4)c3s2)cc1` gave an inhibition at 40 µM of 80%.

For the compound `Cc1c(NC(=O)CNC(=O)c2ccccc2)c(=O)n(-c2ccccc2)n1C`, in the data set on Plasmodium falciparum [3], the pIC50 is less than 5.30. For the same compound, at 80 µM the inhibition in the data set with Plasmodium falciparum [13] was 0%.

With `Cc1cc(/C=C2\S/C(=N\c3ccccc3)N(C3CCCC3)C2=O)c(C)n1-c1ccc(C(F)(F)F)cc1`, the microsomal CLint at 0.5 µM in data set [1] stood at 14 µL/min/mg. The same compound came in with a solubility (kinetic) in data set [2] of 5 µg/mL (≈ 9.81 µM). Moreover, the pIC50 in the data set on Plasmodium falciparum [3] was 6.56; in the data set with Plasmodium falciparum [7], 6.28; in the data set on Plasmodium falciparum [8], 7.47. Besides, the Relative metabolic rate entry in data set [4] was “Moderate”. In data set [6], the half-life at 0.5 µM was found to be 121 min.

As for `COc1ccc2nc3cc(Cl)ccc3c(Nc3cc(CN4CCCC4)c(O)c(CN4CCCC4)c3)c2n1` [PYRONARIDINE], the pIC50 with Plasmodium falciparum [5] is 5.53; in the data set on Plasmodium falciparum [8], 8.49.

`Cc1cc(C(=O)Nc2c(C)n(C)n(-c3ccccc3)c2=O)c(C)n1-c1ccc(F)cc1` displayed an inhibition at 80 µM with Plasmodium falciparum [13] of 100%.

As for `Cc1cc(C(=O)NCC(N)=O)c(C)n1-c1ccc(F)cc1`, the pIC50 with Plasmodium falciparum [3] is less than 5.30; in the data set with Plasmodium falciparum [7], less than 6.00. The compound also showed an inhibition at 80 µM in the data set on Plasmodium falciparum [13] of 25%.

Turning to `Cc1cc(/C=C2\S/C(=N\c3ccccc3)NC2=O)c(C)n1-c1ccc(F)cc1`, in [1], the microsomal CLint at 0.5 µM was determined as 15 µL/min/mg. In addition, in [9], the cytotoxicity at 120 µM turned out to be 25%. Further, in [2], the kinetic solubility worked out at 1 µg/mL (≈ 2.55 µM). In addition, the Relative metabolic rate result in data set [4] was “Moderate”. The results for the pIC50 with Plasmodium falciparum K1 [10] and with Plasmodium falciparum [8] were 6.44 and 6.75, respectively. For the same compound, in data set [6], the half-life at 0.5 µM was found to be 92 min.

Regarding `CNC(=O)CN(C)C(=O)c1cc(C)n(-c2ccc(Br)cc2)c1C`, in the data set on Plasmodium falciparum [11], the inhibition at 40 µM stood at 70%.
